pIC50: −log10 of the molar value.

The values that follow come from BindingDB's records for patent US12384786 (Minghui Pharmaceutical (Shanghai), 2025).

Assay [1] concerns the target Tyrosine-protein kinase BTK (Homo sapiens, UniProt Q06187). In words: Biochemical Evaluation.
Assay [2] has as its target Tyrosine-protein kinase BTK [C481S] (Homo sapiens, UniProt Q06187, C481S). Briefly: Biochemical Evaluation.

Chain of Tyrosine-protein kinase BTK (Q06187 whole entry): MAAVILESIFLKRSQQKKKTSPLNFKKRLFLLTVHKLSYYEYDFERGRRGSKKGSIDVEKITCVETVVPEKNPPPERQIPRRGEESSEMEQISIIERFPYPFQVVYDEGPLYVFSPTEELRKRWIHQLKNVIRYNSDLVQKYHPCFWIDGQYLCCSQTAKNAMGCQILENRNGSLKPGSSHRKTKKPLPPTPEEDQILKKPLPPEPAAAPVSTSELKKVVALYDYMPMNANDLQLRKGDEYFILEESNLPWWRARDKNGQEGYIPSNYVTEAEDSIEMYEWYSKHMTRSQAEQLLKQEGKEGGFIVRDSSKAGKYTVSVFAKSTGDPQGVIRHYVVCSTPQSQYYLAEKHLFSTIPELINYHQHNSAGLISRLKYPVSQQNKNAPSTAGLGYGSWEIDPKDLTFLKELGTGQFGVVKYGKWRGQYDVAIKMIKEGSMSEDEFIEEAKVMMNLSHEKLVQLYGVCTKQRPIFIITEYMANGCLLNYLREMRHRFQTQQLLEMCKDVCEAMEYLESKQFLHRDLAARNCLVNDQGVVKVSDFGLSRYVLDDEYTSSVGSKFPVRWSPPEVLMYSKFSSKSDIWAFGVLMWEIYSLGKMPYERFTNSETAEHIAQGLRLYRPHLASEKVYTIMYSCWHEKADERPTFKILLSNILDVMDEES
Chain of Tyrosine-protein kinase BTK [C481S] (Q06187 2-659 C481S limits assumed): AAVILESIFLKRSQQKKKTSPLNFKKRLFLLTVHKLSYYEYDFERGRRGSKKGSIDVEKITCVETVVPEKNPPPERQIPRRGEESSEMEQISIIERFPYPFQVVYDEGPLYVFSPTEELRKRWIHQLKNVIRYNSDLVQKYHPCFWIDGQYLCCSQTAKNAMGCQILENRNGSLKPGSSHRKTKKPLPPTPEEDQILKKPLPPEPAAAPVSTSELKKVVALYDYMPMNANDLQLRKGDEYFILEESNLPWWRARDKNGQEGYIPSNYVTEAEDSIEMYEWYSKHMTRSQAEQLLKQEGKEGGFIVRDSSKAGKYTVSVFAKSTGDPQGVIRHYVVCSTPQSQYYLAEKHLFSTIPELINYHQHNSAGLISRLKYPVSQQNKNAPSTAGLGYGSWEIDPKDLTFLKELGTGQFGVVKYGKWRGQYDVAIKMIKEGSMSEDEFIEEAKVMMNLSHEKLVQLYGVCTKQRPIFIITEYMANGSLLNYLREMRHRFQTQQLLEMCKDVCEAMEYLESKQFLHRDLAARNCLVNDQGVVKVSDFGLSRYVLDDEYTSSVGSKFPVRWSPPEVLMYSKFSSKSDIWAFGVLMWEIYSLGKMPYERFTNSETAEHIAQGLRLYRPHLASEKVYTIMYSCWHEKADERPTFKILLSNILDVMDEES

For the compound `Nc1ncnc2c1c(-c1ccc(Oc3ccccc3)cc1)nn2[C@H]1CC[C@@H](O)CC1` [US12384786, Example 8A], the pIC50 in assay [1] is 8.60; in assay [2], 9.15.
